Results reported in ChEMBL document CHEMBL5053526, “Synthesis and biological evaluation of cajanonic acid A derivatives as potential PPARγ antagonists” (2021).
Calls of active or inactive are those of the source. The rule behind the calls is not given here.

How the values were obtained:
[1] = biological target: T1, Peroxisome proliferator-activated receptor gamma (Homo sapiens) (UniProt P37231); assay: Antagonist activity at PPARgamma in HEK293 cells assessed as suppression of rosiglitazone induced PPARgamma transactivation at 30 uM by dual-luciferase reporter gene assay relative to control; assay type: cell-based; set-up: scale not given: the % may be the effect or the level left
T1 sequence (whole entry): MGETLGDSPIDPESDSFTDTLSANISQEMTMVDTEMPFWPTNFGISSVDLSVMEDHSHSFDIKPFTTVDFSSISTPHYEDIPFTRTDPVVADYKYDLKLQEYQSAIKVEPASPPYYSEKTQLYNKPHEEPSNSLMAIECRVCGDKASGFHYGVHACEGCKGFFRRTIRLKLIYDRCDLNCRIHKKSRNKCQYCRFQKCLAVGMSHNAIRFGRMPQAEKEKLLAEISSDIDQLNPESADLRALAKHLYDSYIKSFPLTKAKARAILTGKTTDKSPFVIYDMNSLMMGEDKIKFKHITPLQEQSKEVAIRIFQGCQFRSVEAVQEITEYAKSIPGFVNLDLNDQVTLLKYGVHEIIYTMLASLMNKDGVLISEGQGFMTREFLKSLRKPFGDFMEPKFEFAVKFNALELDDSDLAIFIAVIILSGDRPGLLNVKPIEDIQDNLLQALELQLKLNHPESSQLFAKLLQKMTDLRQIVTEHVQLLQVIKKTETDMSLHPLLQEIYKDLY

[2] = test system: HepG2; assay: Insulin-sensitizing activity in human HepG2 cells assessed as glucose consumption at 10 uM (Rvb= 2.04 +/- 0.12 mM); assay type: functional
[3] = test system: HepG2; assay: Insulin-sensitizing activity in human HepG2 cells assessed as increase in glucose consumption at 10 uM relative to control; assay type: functional
[4] = biological target: T1, Peroxisome proliferator-activated receptor gamma (Homo sapiens); assay: Antagonist activity at PPARgamma in HEK293 cells assessed as fold increase in suppression of rosiglitazone induced PPARgamma transactivation at 30 uM by dual-luciferase reporter gene assay relative to CAA; assay type: cell-based
[5] = test system: HepG2; assay: Insulin-sensitizing activity in human HepG2 cells assessed as fold change in glucose consumption at 10 uM relative to CAA; assay type: functional
[6] = test system: HepG2; assay: Insulin-sensitizing activity in human HepG2 cells assessed as fold change in glucose consumption at 10 uM relative to pioglitazone; assay type: functional
[7] = species: Mus musculus; assay: Hypoglycemic activity in db/db mouse assessed as improvement in oral glucose tolerance measured up to 120 mins by OGTT; assay type: functional, organism-based

SMILES	Activity ([1]; filed as antagonist) [%]	fold change (FC) [4]	Activity [1] [%]	Activity [2] [mM]	Activity [3] [%]	fold change (FC) [5]	fold change (FC) [6]	Activity [7]
COc1cc(O)c(C(=O)O)c(CC(=O)c2ccc(Cl)cc2Cl)c1	–	–	15.9	2.25	10.2	–	–	–
COc1cc(O)c(C(=O)O)c(CC(=O)c2ccc(Cl)cc2Cl)c1CC=C(C)C	54.3	–	–	2.52	23.1	–	–	–
COc1cc(O)c(C(=O)O)c(CC(=O)c2cccs2)c1CC=C(C)C	84.6	–	–	2.41	18	–	–	–
COc1cc(CC(=O)c2ccc(F)cc2)c(C(=O)O)c(O)c1CC=C(C)C	93.4	–	–	2.97	45.6	–	–	–
COc1cc(O)c(C(=O)O)c(CS(=O)(=O)c2ccccc2)c1	–	–	-14	1.85	-9.4	–	–	–
CCc1ccc(CCOc2ccc(CC3SC(=O)NC3=O)cc2)nc1 (centres undefined) [PIOGLITAZONE]	–	–	–	2.92	43.3	–	–	–
COc1cc(O)c(C(=O)O)c(CC(=O)c2ccc(F)cc2)c1	–	–	6.3	2.02	-1	–	–	–
COc1cc(CC(=O)c2ccc(Cl)cc2)c(C(=O)O)c(O)c1CC=C(C)C	–	–	28.1	2.59	26.2	–	–	–
COc1cc(CC(=O)c2cccs2)c(C(=O)O)c(O)c1CC=C(C)C	90.2	–	–	2.43	19.1	–	–	–
COc1cc(CC(=O)c2ccc(Cl)cc2Cl)c(C(=O)O)c(O)c1CC=C(C)C	83.2	–	–	2.69	31.9	–	–	–
COc1cc(O)c(C(=O)O)c(CC(=O)c2ccc(Cl)cc2)c1	–	–	12	2.37	16.3	–	–	–
COc1cc(O)c(C(=O)O)c(CC(=O)c2cccs2)c1	–	–	8.7	2.24	9.1	–	–	–
COc1cc(O)c(C(=O)O)c(CC(=O)c2ccc(Cl)cc2)c1CC=C(C)C	–	–	11.3	2.6	27.5	–	–	–

More lines, main results first:

Activity ([1]; filed as antagonist) [%]	fold change (FC) [4]	Activity [1] [%]	SMILES	Activity [2] [mM]	Activity [3] [%]	fold change (FC) [5]	fold change (FC) [6]	Activity [7]
61.1	–	–	COc1cc2c(c(OCC=C(C)C)c1)C(=O)N(Cc1ccc(F)c(Cl)c1)CC2	2.79	36.9	–	–	–
98.2	1.3	–	COc1cc2c(c(OCC=C(C)C)c1)C(=O)N(Cc1cccc(C(F)(F)F)c1)CC2	3.07	50.6	1.5	1.2	Active
–	–	1.9	COc1cc(CS(=O)(=O)c2ccccc2)c(C(=O)O)c(O)c1CC=C(C)C	1.97	-3.4	–	–	–
73.7	–	–	COc1cc(O)c(C(=O)O)c(CC(=O)c2ccccc2)c1CC=C(C)C	2.73	34	–	–	–
79.4	–	–	COc1cc2c(c(OCC=C(C)C)c1)C(=O)N(C(C)c1cccc(C(F)(F)F)c1)CC2 (centres undefined)	2.66	30.6	–	–	–
–	–	-1	COc1cc(O)c(C(=O)O)c(CS(=O)(=O)c2ccccc2)c1CC=C(C)C	2.14	4.9	–	–	–
75.1	–	–	COc1cc2c(c(OCC=C(C)C)c1)C(=O)N(Cc1cccc(F)c1)CC2	2.8	37.4	–	–	–
72.8	–	–	COc1cc(O)c(C(=O)O)c(CC(=O)c2ccc(F)cc2)c1CC=C(C)C	2.85	39.7	–	–	–
81.7	–	–	COc1cc2c(c(OCC=C(C)C)c1)C(=O)N(C(C)c1ccccc1)CC2 (centres undefined)	2.62	28.5	–	–	–
